The text below walks through data of patent EP0612731B1, “Novel guinolone and naphthyridone derivatives” (BAYER AG, priority 1993, dated 1994).

The subject of the assay is HIV. In words: HIV infection in cell culture (syncytium formation in HIV-infected PBLs, modified method of Pauwels et al.). The class given is cell-based. The note with it: Human immunodeficiency virus 1, Lymphocyte, 72 h; HIV-infected normal human blood lymphocytes (PBL's); concentration suppressing 50% (ca. 10 Syncytien) of virus-induced syncytia; microscopic read-out day 3 to 6 after infection, 37°C. Here is the method:
Der HIV-Test wurde mit geringen Modifikationen nach der Methode von Pauwels et al. [vgl. Journal of Virological Methods 20, (1988), 309-321] durchgeführt.
Normale menschliche Blutlymphozyten (PBL's) wurden über Ficoll-Hypaque angereichert und im RPMI 1640, 20% fötales Kälberserum mit Phythaemagglutinin (90 µg/ml) und Interleukin-2 (40 U/ml) stimuliert. Zur Infektion mit dem infektiösen HIV wurden PBL's pelletiert und das Zellpellet wurde anschließend in 1 ml HIV-Virusadsorptionslösung suspendiert und 1 Stunde bei 37°C inkubiert.
Die Virusadsorptionslösung wurde zentrifugiert und das infizierte Zellpellet in Wachstumsmedium aufgenommen, so daß 1 x 10^5 Zellen pro ml eingestellt waren. Die derart infizierten Zellen wurden zu 1 x 10^4 Zellen/Napf in die Näpfe von 96er Mikrotiterplatten pipettiert.
Die erste vertikale Reihe der Mikrotiterplatte enthielt nur Wachstumsmedium und Zellen, die nicht infiziert, aber ansonsten genauso wie oben beschrieben, behandelt worden waren (Zellkontrolle). Die zweite vertikale Reihe der Mikrotiterplatte erhielt nur HIV-infizierte Zellen (Viruskontrolle) in Wachstumsmedium. Die übrigen Näpfe enthielten die erfindungsgemäßen Verbindungen in unterschiedlichen Konzentrationen, ausgehend von den Näpfen der 3. vertikalen Reihe der Mikrotiterplatte, von der die Prüfsubstanzen in 2er Schritten 2^10fach verdünnt wurden.
Die Testansätze wurden so lange bei 37°C inkubiert, bis in der unbehandelten Viruskontrolle die für das HIV typische Syncytienbildung auftrat (zwischen Tag 3 und 6 nach Infektion), die dann mikroskopisch ausgewertet wurde. In der unbehandelten Viruskontrolle resultierten unter diesen Testbedingungen etwa 20 Syncytien, während die unbehandelte Zellkontrolle keine Syncytien aufwies.
Die IC50-Werte wurden als die Konzentration der erfindungsgemäßen Verbindungen ermittelt, bei der 50% (ca. 10 Syncytien) der virusinduzierten Syncytien durch die Behandlung mit der erfindungsgemäßen Verbindung unterdruckt waren.

With `O=C(O)c1cn(-c2ccc(Cn3cncn3)cc2)c2nc(N3CCN(c4ccccc4)CC3)c(F)cc2c1=O` [Beispiel 50, 6-Fluor-1,4-dihydro-4-oxo-7-(4-phenylpiperazin-1-yl)-1-[4-(1H-1,2,4-triazol-1-yl-methyl)phenyl]-1,8-naphthyridin-3-carbonsäure], the IC50 was 0.5 µM.

As for `O=C(O)c1cn(-c2cccc(Cn3ccnn3)c2)c2cc(N3CCN(c4cccc(Cl)c4)CC3)c(F)cc2c1=O` [Beispiel 69], the IC50 amounted to 0.7 µM.

On to `CCOC(=O)c1cn(-c2ccccc2Cn2nccn2)c2cc(N3CCN(c4cccc(Cl)c4)CC3)c(F)cc2c1=O` [Beispiel 113], for which the 50% inhibitory concentration (IC50) was 2 µM.

Take `O=C(O)c1cn(-c2ccc(Cn3cncn3)cc2)c2nc(N3CCN(c4ccc(F)cc4)CC3)c(F)cc2c1=O` [Beispiel 51]: the IC50 worked out at 0.2 µM.

As for `O=C(O)c1cn(-c2ccc(Cn3cncn3)cc2)c2cc(N3CCN(c4ccccc4)CC3)c(F)cc2c1=O` [Beispiel 39, 6-Fluor-1,4-dihydro-4-oxo-7-(4-phenylpiperazin-1-yl)-1-[4-(1H-1,2,4-triazol-1-yl-methyl)phenyl]-3-chinolin-carbonsäure], the concentration for half-maximal inhibition (IC50) is 0.25 µM.

For `O=C(O)c1cn(-c2ccc(Cn3ccnn3)cc2)c2nc(N3CCN(c4cccc(Cl)c4)CC3)c(F)cc2c1=O` [Beispiel 23], the half-inhibitory concentration (IC50) was found to be 0.4 µM.

Consider `COc1cccc(N2CCN(c3cc4c(cc3F)c(=O)c(C(=O)O)cn4-c3ccc(Cn4ccnn4)cc3)CC2)c1` [Beispiel 8], for which the IC50 worked out at 3 µM.

Regarding `O=C(O)c1cn(-c2ccc(Cn3ccnn3)cc2)c2nc(N3CCN(c4ccccc4)CC3)c(F)cc2c1=O` [Beispiel 20, 6-Fluor-1,4-dihydro-4-oxo-7-(4-phenylpiperazin-1-yl)-1-[4-(1H-1,2,3-triazol-1-yl-methyl)-phenyl]-1,8-naphthyridin-3-carbonsäure], the IC50 amounted to 0.2 µM.

As for `O=C(O)c1cn(-c2ccc(Cn3ccnn3)cc2)c2cc(N3CCN(c4cccc(Cl)c4)CC3)c(F)cc2c1=O` [Beispiel 14], the IC50 turned out to be 0.7 µM.

For the molecule `O=C(O)c1cn(-c2cccc(Cn3cncn3)c2)c2nc(N3CCN(c4ccc(Cl)cc4)CC3)c(F)cc2c1=O` [Beispiel 92], the 50% inhibitory concentration (IC50) worked out at 0.6 µM.

As for `O=C(O)c1cn(-c2ccc(Cn3nccn3)cc2)c2cc(N3CCN(c4cccc(Cl)c4)CC3)c(F)cc2c1=O` [Beispiel 31], the IC50 is 0.7 µM.

Take `CCOc1ccccc1N1CCN(c2c(F)cc3c(=O)c(C(=O)O)cn(-c4ccc(Cn5cncn5)cc4)c3c2F)CC1` [Beispiel 146]: the IC50 was 0.7 µM.
